In experiment [1] the target is T1, Beta-secretase 1 (Homo sapiens, UniProt P56817). Kind of experiment: Inhibition of human BACE1 by FRET.
For experiment [2], the target named is T1, Beta-secretase 1. Kind of experiment: Inhibition of BACE1 expressed in CHO cells co-expressing human wild type APP protein by ELISA. The class given is cell-based. (In general: ELISA stands for enzyme-linked immunosorbent assay.)
Experiment [3] concerns the target T2, Cathepsin D (Homo sapiens, UniProt P07339). Nature of the experiment: Inhibition of human cathepsin D at 100 uM by FRET.
For a further experiment, the target named is T3, Beta-secretase 2 (Homo sapiens, UniProt Q9Y5Z0).
T3 sequence (Q9Y5Z0 whole entry): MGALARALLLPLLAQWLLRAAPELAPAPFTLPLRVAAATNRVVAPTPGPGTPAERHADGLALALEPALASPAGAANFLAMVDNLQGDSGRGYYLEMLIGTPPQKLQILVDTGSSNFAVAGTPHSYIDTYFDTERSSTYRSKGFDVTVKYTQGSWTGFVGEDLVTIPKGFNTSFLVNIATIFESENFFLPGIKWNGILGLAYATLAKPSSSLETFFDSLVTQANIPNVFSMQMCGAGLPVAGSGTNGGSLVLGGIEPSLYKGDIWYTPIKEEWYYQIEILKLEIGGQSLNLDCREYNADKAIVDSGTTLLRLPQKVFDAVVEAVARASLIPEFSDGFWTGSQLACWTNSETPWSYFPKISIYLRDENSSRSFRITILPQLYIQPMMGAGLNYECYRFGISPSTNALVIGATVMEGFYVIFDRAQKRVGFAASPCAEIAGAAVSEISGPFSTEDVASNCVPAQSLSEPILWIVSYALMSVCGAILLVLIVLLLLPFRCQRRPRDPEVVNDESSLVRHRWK

The target in the next experiment is T4, Renin (Homo sapiens) (UniProt P00797).
T4 sequence (whole entry): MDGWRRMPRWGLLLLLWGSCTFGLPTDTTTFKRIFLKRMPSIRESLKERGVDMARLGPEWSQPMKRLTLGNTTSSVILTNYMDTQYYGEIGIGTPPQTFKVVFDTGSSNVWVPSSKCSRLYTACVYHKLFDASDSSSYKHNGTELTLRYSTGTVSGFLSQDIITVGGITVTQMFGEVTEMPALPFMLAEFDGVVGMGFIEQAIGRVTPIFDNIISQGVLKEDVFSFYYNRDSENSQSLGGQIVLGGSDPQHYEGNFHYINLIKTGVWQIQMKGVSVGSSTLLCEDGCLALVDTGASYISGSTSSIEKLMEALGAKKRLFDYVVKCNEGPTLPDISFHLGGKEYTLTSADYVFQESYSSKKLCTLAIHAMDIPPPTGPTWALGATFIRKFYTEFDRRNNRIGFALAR
Nature of the experiment: Inhibition of human recombinant renin at 50 uM by FRET.

Experiment [4] concerns the target T2, Cathepsin D. Kind of experiment: Inhibition of human cathepsin D by FRET.
A short description of experiment [5]: Inhibition of pepsin at 100 uM by FRET.
The target in experiment [6] is T5, Beta-secretase 2 (Homo sapiens) (UniProt Q9Y5Z0).
T5 sequence (whole entry): T3 sequence (Q9Y5Z0 whole entry)
Nature of the experiment: Inhibition of human BACE2 at 100 uM by FRET.

For another experiment, the target named is T6, Renin (Homo sapiens, UniProt P00797).
T6 sequence (P00797 whole entry): T4 sequence (whole entry)
Nature of the experiment: Inhibition of human recombinant renin by FRET.

Experiment [7] deals with T5, Beta-secretase 2 (Homo sapiens). Kind of experiment: Inhibition of human BACE2 at […] by FRET.
Experiment [8] concerns the target T2, Cathepsin D. Kind of experiment: Inhibition of human cathepsin D at 200 uM by FRET.
Experiment [9] deals with Mus musculus. Kind of experiment: Reduction in Abeta-40 level in Tg2576 mouse plasma at 30 mg/kg, po administered as single dose after 6 hrs. The class given is functional. More on the design: scale not given: the % may be the effect or the level left.
Experiment [10] deals with Mus musculus. Kind of experiment: Reduction in Abeta-40 level in Tg2576 mouse brain at 30 mg/kg, po administered as single dose after 6 hrs. The class given is functional, organism-based. More on the design: dose 30 mg/kg.

Activity calls are given as the source filed them. No cut-off for these calls is given here.

As usually defined, the IC50 is the point on the concentration scale where inhibition reaches its midpoint. For orientation: EC50 means the concentration at which the effect is half-maximal. The term inhibition denotes the drop in the measured response relative to a control, in per cent.

T2 sequence (P07339 65-162 limits assumed): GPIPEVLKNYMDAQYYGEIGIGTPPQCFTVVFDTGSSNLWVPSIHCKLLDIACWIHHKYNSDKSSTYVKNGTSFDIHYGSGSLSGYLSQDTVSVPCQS
T2 sequence (P07339 169-412 limits assumed): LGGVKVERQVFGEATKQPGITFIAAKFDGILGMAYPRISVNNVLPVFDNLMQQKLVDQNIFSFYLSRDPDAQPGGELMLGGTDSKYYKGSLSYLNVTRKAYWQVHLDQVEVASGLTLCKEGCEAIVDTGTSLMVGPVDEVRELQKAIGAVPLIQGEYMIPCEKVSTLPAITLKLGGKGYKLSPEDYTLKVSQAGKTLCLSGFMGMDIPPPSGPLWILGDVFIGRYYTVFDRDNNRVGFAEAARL
T1 sequence (P56817 whole entry): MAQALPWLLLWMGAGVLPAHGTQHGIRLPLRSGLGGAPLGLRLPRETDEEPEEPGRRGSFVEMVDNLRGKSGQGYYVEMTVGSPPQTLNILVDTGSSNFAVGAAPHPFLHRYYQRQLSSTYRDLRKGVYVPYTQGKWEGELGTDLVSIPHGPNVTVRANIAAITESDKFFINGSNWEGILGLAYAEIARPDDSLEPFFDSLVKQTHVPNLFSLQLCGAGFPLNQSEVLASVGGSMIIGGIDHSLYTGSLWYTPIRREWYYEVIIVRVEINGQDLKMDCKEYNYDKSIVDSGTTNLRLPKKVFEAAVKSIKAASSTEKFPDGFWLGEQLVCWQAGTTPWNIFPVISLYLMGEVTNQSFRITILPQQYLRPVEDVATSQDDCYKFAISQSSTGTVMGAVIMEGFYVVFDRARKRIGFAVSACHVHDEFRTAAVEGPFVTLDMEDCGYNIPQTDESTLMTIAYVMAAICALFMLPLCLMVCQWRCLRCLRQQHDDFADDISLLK

Turning to `NC1=NC(c2ccccc2)(c2cccc(C(F)(F)F)c2)C2=NCCCN12` (stereo unspecified), the half-maximal inhibitory concentration (IC50) at Beta-secretase 1 [1] is 21.9 µM; at Beta-secretase 2, 30.1 µM. On Beta-secretase 1 [2], this compound returned a 50% effective concentration (EC50) of 5.1 µM. Also, the inhibition at Cathepsin D [3] turned out to be 28%.
In the case of `NC1=N[C@](c2ccc(OC(F)(F)F)cc2)(c2cccc(-c3cncnc3)c2)C2=NCCCN12`, the inhibition on Renin (Homo sapiens) was determined as 36%; in [5] it was 12%. The IC50 is 36.2 µM at Cathepsin D [4] and 10.7 µM against Beta-secretase 2.
As for `NC1=NC(c2ccc(OC(F)(F)F)cc2)(c2cccc(-c3cncnc3)c2)C2=NCCCN12` (stereo unspecified), the concentration for half-maximal inhibition (IC50) against Cathepsin D [4] stood at 78.7 µM; on Beta-secretase 2 it was 16.7 µM.
In [6], `CC(C)(C)c1cccc(C2(c3ccccc3)N=C(N)N3CCCN=C32)c1` (stereo unspecified) had an inhibition of 21%. For the same compound, the IC50 stood at 30.2 µM at Beta-secretase 1 [1] and 150 µM on Cathepsin D [4]. At Beta-secretase 1 [2], this compound displayed an EC50 of 3 µM.
`NC1=NC(c2cccc(-c3cccnc3F)c2)(c2ccc3c(c2)OC(F)(F)O3)C2=NCCCN12` (stereo unspecified) displayed a concentration for half-maximal inhibition (IC50) on Cathepsin D [4] of 95.3 µM.
Consider `CCOc1ccc(C2(c3cccc(-c4cccnc4F)c3)N=C(N)N3CCCN=C32)cc1OCC` (stereo unspecified), for which the inhibition at Renin (Homo sapiens) was 14%; in experiment [5] it was 11%. Further, the concentration for half-maximal inhibition (IC50) came to 0.08 µM against Beta-secretase 1 [1] and 63.4 µM on Cathepsin D [4].
The compound `NC1=N[C@@](c2ccc(OC(F)(F)F)cc2)(c2cccc(-c3cncnc3)c2)C2=NCCCN12` showed an inhibition against Cathepsin D [3] of 29%.
As to `NC1=NC(c2ccc(OC(F)(F)F)cc2)(c2cccc(-c3cccnc3F)c2)C2=NOCCN12` (stereo unspecified), the values for the IC50 against Cathepsin D [4] and at Renin were 2.4 µM and 2.04 µM, respectively. On Beta-secretase 1 [2], this compound showed an EC50 of 0.2 µM. Also, the inhibition in experiment [5] came out at 12%.
In the case of `NC1=NC(c2ccc(OC(F)(F)F)cc2)(c2cccc(Br)c2)C2=NCCCN12` (stereo unspecified), the 50% inhibitory concentration (IC50) was found to be 2.6 µM against Beta-secretase 1 [1] and 47.4 µM at Cathepsin D [4]. Besides, the midpoint of the response on Beta-secretase 1 [2], the EC50, lay at 1.6 µM. Besides, in experiment [7], the inhibition amounted to 39%.
As for `NC1=NC(c2ccccc2)(c2cccc(Cc3ccc(F)cc3)c2)C2=NCCCN12` (stereo unspecified), the inhibition on Renin (Homo sapiens) was determined as 15%; in experiment [5] it was 6%. In addition, the values for the 50% inhibitory concentration (IC50) at Cathepsin D [4] and against Beta-secretase 2 were 9.2 µM and 7 µM, respectively. Further, the EC50 at Beta-secretase 1 [2] is 4.6 µM.
In the case of `CCCc1cccc(C2(c3ccc(OC(F)(F)F)cc3)N=C(N)N3CCCN=C32)c1` (stereo unspecified), on Cathepsin D [4], half-maximal inhibition (IC50) was put at 93.7 µM. On Beta-secretase 1 [2], this compound returned a concentration for a half-maximal effect (EC50) of 2.1 µM.
In the case of `NC1=NC(c2ccc(OC(F)(F)F)cc2)(c2cccc(-c3cccnc3F)c2)/C2=N/CCCCCN12` (stereo unspecified), the IC50 against Cathepsin D [4] stood at 11.3 µM; against Beta-secretase 2, 10.8 µM.
The compound `NC1=N[C@@](c2ccc(OC(F)(F)F)cc2)(c2cccc(-c3cccnc3F)c2)C2=NCCCN12` yielded an IC50 at Cathepsin D [4] of 56.9 µM.
In the case of `NC1=NC(c2cccc(-c3cccnc3F)c2)(c2ccc3c(c2)OCO3)C2=NCCCN12` (stereo unspecified), the inhibition on Renin (Homo sapiens) turned out to be 24%; in [5], 18%. The same compound yielded an IC50 at Cathepsin D [4] of 15.4 µM.
For `COc1ccc(Cc2cccc(C3(c4ccccc4)N=C(N)N4CCCN=C43)c2)cc1` (stereo unspecified), the half-inhibitory concentration (IC50) was 24.9 µM against Cathepsin D [4] and 22.4 µM on Beta-secretase 2. The compound further returned a half-maximal effective concentration (EC50) on Beta-secretase 1 [2] of 5.1 µM.
As for `COc1ccc(C2(c3cccc(-c4cccnc4F)c3)N=C(N)N3CCCN=C32)cc1` (stereo unspecified), the IC50 on Beta-secretase 1 [1] was 0.07 µM; on Cathepsin D [4] it was 16.5 µM. The same compound came in with a half-maximal effective concentration (EC50) on Beta-secretase 1 [2] of 1.63 µM.
With `NC1=NC(c2ccccc2)(c2cccc(Cc3ccccc3)c2)C2=NCCCN12` (stereo unspecified), the figures for the concentration for half-maximal inhibition (IC50) at Cathepsin D [4] and against Beta-secretase 2 were 52.5 µM and 10.9 µM, respectively. On Beta-secretase 1 [2], this compound had an EC50 of 5.1 µM.
For the compound `CC1(C)CN2C(N)=NC(c3ccc(OC(F)(F)F)cc3)(c3cccc(-c4cccnc4F)c3)C2=N1` (stereo unspecified), the figures for the 50% inhibitory concentration (IC50) on Beta-secretase 1 [1], against Cathepsin D [4] and on Beta-secretase 2 were 0.19 µM, 33 µM and 17.3 µM, respectively. Further, a half-maximal effect at Beta-secretase 1 [2] (EC50) was put at 1.5 µM.
Take `COc1cccc(C2(c3ccccc3)N=C(N)N3CCCN=C32)c1` (stereo unspecified): the IC50 against Beta-secretase 1 [1] is 20.3 µM; on Beta-secretase 2, 24.4 µM. Also, the midpoint of the response on Beta-secretase 1 [2], the EC50, lay at 20.9 µM. The same compound displayed an inhibition on Cathepsin D [3] of 22%.
The compound `NC1=NC(c2ccc(OC(F)(F)F)cc2)(c2cccc(-c3cccnc3F)c2)C2=NCCCN12` (racemic) had a 50% inhibitory concentration (IC50) at Cathepsin D [4] of 18.1 µM.
As for `COc1ccc(C2(c3cccc(-c4cncnc4)c3)N=C(N)N3CCCN=C32)cc1` (stereo unspecified), the values for the IC50 at Cathepsin D [4] and against Beta-secretase 2 were 69.5 µM and 16.2 µM, respectively.
`NC1=NC(c2ccc(OC(F)(F)F)cc2)(c2cccc(-c3cccnc3F)c2)C2=NCCN12` (stereo unspecified) gave an IC50 against Cathepsin D [4] of 10.7 µM.
For the compound `NC1=NC(c2ccccc2)(c2ccccc2)C2=NCCCN12`, at Cathepsin D [8], the inhibition turned out to be 16%.
For `NC1=NC(c2ccc(OC(F)(F)F)cc2)(c2cccc(CCC3CC3)c2)C2=NCCCN12` (stereo unspecified), the IC50 amounted to 16.4 µM on Cathepsin D [4] and 3.78 µM at Beta-secretase 2. On Beta-secretase 1 [2], this compound displayed a concentration giving a half-maximal response (EC50) of 0.95 µM.
For the compound `NC1=NC(c2ccc(OC(F)(F)F)cc2)(c2cccc(-c3cccnc3F)c2)C2=NCCCCN12` (stereo unspecified), the IC50 on Beta-secretase 1 [1] was determined as 0.08 µM; against Cathepsin D [4] it was 10.8 µM. Also, the EC50 on Beta-secretase 1 [2] stood at 0.3 µM.
Take `NC1=NC(c2cccc(-c3cccnc3F)c2)(c2ccc3c(c2)OCCO3)C2=NCCCN12` (stereo unspecified): 9.6 µM corresponded to half-maximal inhibition on Cathepsin D [4] (IC50).
In turn, `NC1=N[C@](c2ccc(OC(F)(F)F)cc2)(c2cccc(-c3cccnc3F)c2)C2=NCCCN12` gave an Activity in the experiment with Mus musculus [9] of 71%. Also, the result in the experiment with Mus musculus [10] was inactive. Also, the concentration for half-maximal inhibition (IC50) turned out to be 6.9 µM against Cathepsin D [4], 20.8 µM at Renin and 3.6 µM against Beta-secretase 2. For the same compound, the inhibition in experiment [5] came out at 13%.
